{"source": "patent US20040248809A1", "about": "“Use of antagonists of the bradykinin B2 receptor for the treatment of osteoarthrosis” (Aventis Pharma Deutschland GmbH, priority 2003, published 2004)", "tested_on": "MMP3 expression in the chondrosarcoma cell line SW1353", "assay": "MMP-3 release from SW cells (MMP3 ELISA of cell culture supernatant)", "type": "cell-based", "conditions": "for MMP-3 release MW (OD 450 nm) / Relative values based on starting value: SW cells; for Relative values based on starting value: IL1α alone = 100", "description": "For the analysis of the disease-modifying action of HOE140 in a cell culture model relevant to cartilage, the MMP3 expression was analyzed in the chondrosarcoma cell line SW1353 (ATCC: HTB 94). For the experiments, SW1353 cells were cultured under standard conditions (37° C., 5% CO2) in DMEM-Glutamax with 10% of fetal calf serum (FCS) in plastic culture bottles. After detrypsinization of the cells, 50,000 cells were inoculated per well of a 96-well flat-bottom plate in medium without FCS and preincubated with the compound HOE140 in an incubator. After one hour, the cells were stimulated by addition of human IL1-β (0.1 ng/mL, Roche) in a total volume of 300 μL. After incubation for 24 hours under standard conditions, the cell culture supernatant was taken off, centrifuged for 5 minutes and frozen at −20° C. until further analysis. The MMP3 expression in the cell culture supernatants was then analyzed by means of a commercial MMP3 ELISA test system (Amersham) according to the instructions of the manufacturer. In parallel to this, a WST cytotoxicity test was carried out with the remaining cells. For this the commercial test system of Roche was used and the measurement was carried out according to the instructions of the >manufacturer's protocol. […] Bradykinin increases the MMP3 release by more than 30%.", "key": {"[1]": {"conditions": "IL1α + bradykinin (0.1 μM) + 0.05 μM HOE140"}, "[2]": {"conditions": "IL1α + bradykinin (0.1 μM) + 0.1 μM HOE140"}, "[3]": {"conditions": "IL1α + bradykinin (0.1 μM) + 0.5 μM HOE140"}, "[4]": {"conditions": "IL1α + bradykinin (0.1 μM) + 1 μM HOE140"}}, "data": [{"substance": "D-arginyl-L-arginyl-L-prolyl-L-prolylglycyl-3-(2-thienyl)-L-alanyl-L-seryl-(3R)-1,2,3,4-tetrahydro-3-isoquinolinecarbonyl-(2S,3aS,7aS)-octahydro-1H-indole-2-carbonyl-L-arginine [HOE140]", "values": [{"measurement": "inhibition of the bradykinin-increased release of MMP3 (in words)", "setting": "SW1353 cells, IL1 + bradykinin", "value": "inhibited by HOE140 in a dose-dependent manner"}, {"measurement": "MMP-3 release MW (OD 450 nm)", "setting": "[1]", "value": 458, "unit": "OD 450 nm"}, {"measurement": "Relative values based on starting value", "setting": "[1]", "value": 139.6}, {"measurement": "MMP-3 release MW (OD 450 nm)", "setting": "[2]", "value": 371, "unit": "OD 450 nm"}, {"measurement": "Relative values based on starting value", "setting": "[2]", "value": 113.1}, {"measurement": "MMP-3 release MW (OD 450 nm)", "setting": "[3]", "value": 309, "unit": "OD 450 nm"}, {"measurement": "Relative values based on starting value", "setting": "[3]", "value": 94.2}, {"measurement": "MMP-3 release MW (OD 450 nm)", "setting": "[4]", "value": 306, "unit": "OD 450 nm"}, {"measurement": "Relative values based on starting value", "setting": "[4]", "value": 93.3}]}]}
